Assay results: PubChem BioAssay (NCI)
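GI50 = concentration required for 50% inhibition of growth. Definition used: TGI = concentration required for complete inhibition of growth.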

What was measured:
Test in all cases: growth of human tumour cells (NCI), 384-well format
[1] = tested on: SNB-19 CNS
[2] = tested on: UO-31 renal
[3] = tested on: K-562 leukemia
[4] = tested on: NCI-H322M lung
[5] = tested on: NCI-H226 lung
[6] = tested on: PC-3 prostate
[7] = tested on: DU-145 prostate
[8] = tested on: 786-0 renal
[9] = tested on: SF-268 CNS
[10] = tested on: NCI-H23 lung
[11] = tested on: MDA-MB-468 breast
[12] = tested on: A549 NSCLC
[13] = tested on: M14 melanoma
[14] = tested on: RPMI-8226 leukemia
[15] = tested on: NCI-H460 NSCLC
[16] = tested on: CAKI-1 renal
[17] = tested on: A498 renal
[18] = tested on: HL-60(TB) leukemia
[19] = tested on: KM12 colon
[20] = tested on: SK-OV-3 ovarian
[21] = tested on: HCT-116 colon
[22] = tested on: TK-10 renal
[23] = tested on: NCI-H522 lung
[24] = tested on: MCF7 breast
[25] = tested on: HOP-62 NSCLC
[26] = tested on: HCC-2998 colon
[27] = tested on: MOLT-4 leukemia
[28] = tested on: HCT-15 colon
[29] = tested on: MALME-3M melanoma
[30] = tested on: T-47D breast
[31] = tested on: HS 578T breast
[32] = tested on: IGROV1 ovarian
[33] = tested on: NCI/ADR-RES ovarian
[34] = tested on: ACHN renal
[35] = tested on: SR leukemia
[36] = tested on: SF-539 CNS
[37] = tested on: HOP-92 NSCLC
[38] = tested on: HT29 colon
[39] = tested on: MDA-MB-231 breast
[40] = tested on: MDA-MB-435 melanoma
[41] = tested on: UACC-62 melanoma
[42] = tested on: LOX IMVI melanoma
[43] = tested on: SNB-75 CNS
[44] = tested on: SF-295 CNS
[45] = tested on: BT-549 breast
[46] = tested on: RXF 393 renal
[47] = tested on: SW-620 colon
[48] = tested on: COLO 205 colon
[49] = tested on: UACC-257 melanoma
[50] = tested on: OVCAR-3 ovarian
[51] = tested on: U251 glioblastoma
[52] = tested on: EKVX NSCLC
[53] = tested on: OVCAR-4 ovarian
[54] = tested on: SK-MEL-5 melanoma
[55] = tested on: SK-MEL-28 melanoma
[56] = tested on: CCRF-CEM leukemia
[57] = tested on: SN12C renal
[58] = tested on: OVCAR-8 ovarian

## N#CC1(c2ccc(NC(=O)c3cccnc3NCc3ccncc3)cc2)CCCC1
[1]
  GI50: 14.3 µM
  TGI: 28.9 µM
[2]
  GI50: 12.6 µM
  TGI: 25.2 µM
[3]
  GI50: 2.88 µM
  TGI: 12.2 µM
[4]
  GI50: 12.2 µM
  TGI: 31.2 µM
[5]
  GI50: 11 µM
  TGI: 27.5 µM
[6]
  GI50: 9.47 µM
  TGI: 23.1 µM
[7]
  GI50: 12.3 µM
  TGI: 33.5 µM
[8]
  GI50: 4.39 µM
  TGI: 15.5 µM
[9]
  GI50: 12.9 µM
  TGI: 27.2 µM
[10]
  GI50: 9.55 µM
  TGI: 23.1 µM
[11]
  GI50: 3.62 µM
  TGI: 14.3 µM
[12]
  GI50: 12.1 µM
  TGI: 25.5 µM
[13]
  GI50: 12.6 µM
  TGI: 30 µM
[14]
  GI50: 1.95 µM
  TGI: 5.66 µM
[15]
  GI50: 7.74 µM
  TGI: 20.3 µM
[16]
  GI50: 11.7 µM
  TGI: 25 µM
[17]
  GI50: 7.95 µM
  TGI: 20.5 µM
[18]
  GI50: 2.05 µM
  TGI: 3.76 µM
[19]
  GI50: 13 µM
  TGI: 26.5 µM
[20]
  GI50: 12.1 µM
  TGI: 24.6 µM
[21]
  GI50: 10.6 µM
  TGI: 22.4 µM
[22]
  GI50: 11.2 µM
  TGI: 28.8 µM
[23]
  GI50: 10.5 µM
  TGI: 22.5 µM
[24]
  GI50: 5.9 µM
  TGI: 21.2 µM
[25]
  GI50: 11.2 µM
  TGI: 23.7 µM
[26]
  GI50: 5.87 µM
  TGI: 17.3 µM
[27]
  GI50: 4.64 µM
  TGI: 17.3 µM
[28]
  GI50: 3.17 µM
  TGI: 12.5 µM
[29]
  GI50: 3.09 µM
  TGI: 13.2 µM
[30]
  GI50: 2.75 µM
  TGI: 14.5 µM
[31]
  GI50: 3.38 µM
  TGI: 15.2 µM
[32]
  GI50: 13.7 µM
  TGI: 31 µM
[33]
  GI50: 11 µM
  TGI: 27.2 µM
[34]
  GI50: 13.7 µM
  TGI: 36.2 µM
[35]
  GI50: 2.45 µM
  TGI: 4.9 µM
[36]
  GI50: 4.43 µM
  TGI: 19.2 µM
[37]
  GI50: 10.3 µM
  TGI: 23.8 µM
[38]
  GI50: 3.99 µM
  TGI: 12.6 µM
[39]
  GI50: 4.96 µM
  TGI: 20.3 µM
[40]
  GI50: 14.5 µM
  TGI: 28.2 µM
[41]
  GI50: 10.9 µM
  TGI: 22.9 µM
[42]
  GI50: 13.3 µM
  TGI: 26.1 µM
[43]
  GI50: 7.08 µM
  TGI: 20.7 µM
[44]
  GI50: 9.76 µM
  TGI: 21.5 µM
[45]
  GI50: 8.33 µM
  TGI: 22.9 µM
[46]
  GI50: 1.84 µM
  TGI: 5.83 µM
[47]
  GI50: 8.06 µM
  TGI: 20 µM
[48]
  GI50: 13.4 µM
  TGI: 37.6 µM
[49]
  GI50: 10.4 µM
  TGI: 25.1 µM
[50]
  GI50: 9.01 µM
  TGI: 21.7 µM
[51]
  GI50: 12.6 µM
  TGI: 25.1 µM
[52]
  GI50: 6.32 µM
  TGI: 25.8 µM
[53]
  GI50: 11.7 µM
  TGI: 30.1 µM
[54]
  GI50: 2.82 µM
  TGI: 13 µM
[55]
  GI50: 13.8 µM
  TGI: 40.6 µM
[56]
  GI50: 4.22 µM
  TGI: 17.6 µM
[57]
  GI50: 7.37 µM
  TGI: 25.3 µM
[58]
  GI50: 11.1 µM
  TGI: 24.7 µM
